Patent publication US20120021014A1, “CORROSION CURRENT-GENERATING METAL PARTICULATES AND USE THEREOF” (priority 2010, published 2012)

Assays:
[1] = test system: human keratinocyte cells; experiment: Hydrogen peroxide production in human keratinocytes (CM-H2DCFDA fluorescence); type: cell-based; conditions: 0.03% positive control; 60 Minutes
Experimental: The cells were treated with different amounts of the magnesium powder.

[2] = test system: Albino male CD-1 mice; experiment: Oxazolone immune cell-mediated skin inflammation model (ear biopsy weight); type: in vivo; conditions: 1 mg/ml positive control, topical to ear; 24 hours
[3] = test system: male albino Wistar rats (SPRAGUE DAWLEY); experiment: CFA-induced ankle arthritis, incapacitance test (weight bearing); type: in vivo; conditions: positive control, 3 mg/kg once daily prior to the functional measurements
[4] = test system: male albino Wistar rats (SPRAGUE DAWLEY); experiment: CFA-induced ankle arthritis, joint swelling (paw volume difference); type: in vivo; conditions: positive control, 3 mg/kg once daily; CFA-induced paw vs control paw

OO [H2O2, hydrogen peroxide]
Hydrogen peroxide production (fluorescence 485 nm excitation/530 nm emission) [1]: 150.11 ± 2.9

C[C@]12CCC(=O)C=C1CC[C@@H]1[C@@H]2[C@@H](O)C[C@@]2(C)[C@H]1CC[C@]2(O)C(=O)CO [Hydrocortisone, hydrocortisone]
Percent Inhibition of Skin Inflammation [2]: 70.3% ± 6.6%

CN1CC[C@]23c4c5ccc(O)c4O[C@H]2[C@@H](O)C=C[C@H]3[C@H]1C5.O=S(=O)(O)O [Morphine, morphine sulphate]
Deficiency Improvement, MEAN IMPROVEMENT (weight bearing percent minus Day 4 baseline, averaged over all time points) [3]: 16.85
MEAN PAW VOLUME DIFFERENCE [4]: 1.38 mL
